Measurements published in patent publication US5902812A, “Pharmaceutical piperazine compounds” (Xenova Limited, priority 1994, dated 1999).
Where a name gives a salt, the structure may show the parent alone. Read-outs that look alike come from different tables or passages of the source.

Target: PAI-1 (Homo sapiens, UniProt P05121)
Experiment: biochemical
Settings: for inhibition at 20 µM / inhibition at 50 µM / inhibition at 100 µM / inhibition at 6.25 µM / inhibition at 12.5 µM / inhibition at 25 µM: read-out: Degree of inhibition in PAI chromogenic substrate assay
[1] = PAI chromogenic substrate assay, read-out: IC50

Chain of PAI-1 (P05121 24-402): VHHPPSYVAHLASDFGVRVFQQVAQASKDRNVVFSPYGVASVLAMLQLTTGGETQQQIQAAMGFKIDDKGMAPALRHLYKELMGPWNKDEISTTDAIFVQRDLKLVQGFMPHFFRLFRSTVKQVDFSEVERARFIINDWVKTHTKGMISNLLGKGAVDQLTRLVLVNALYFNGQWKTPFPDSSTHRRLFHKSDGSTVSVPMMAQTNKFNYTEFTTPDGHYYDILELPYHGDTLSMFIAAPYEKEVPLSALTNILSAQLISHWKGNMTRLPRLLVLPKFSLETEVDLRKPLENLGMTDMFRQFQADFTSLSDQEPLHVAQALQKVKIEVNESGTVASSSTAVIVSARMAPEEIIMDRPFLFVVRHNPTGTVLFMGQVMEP
Experimental: In this assay, a compound is incubated with PAI-1 prior to addition to the tPA assay system. Inhibition of PAI-1 results in the production of plasmin from plasminogen. In turn, plasmin cleaves the chromogenic substrate S2251 (Kabi Vitrum) producing pNA (p-nitroaniline) which is detected spectrophotometrically at 405 nm (K. Nilsson et al, Fibrinolysis (1987) 1, 163-168).
Compounds of formula (A) were tested in a PAI chromogenic substrate assay. In the assay (K.Nilsson, Fibrinolysis (1987) 1, 163-168) each compound was incubated with PAI-1 prior to addition to the tPA assay system. […] In turn, the plasmin cleaved the chromogenic substrate S2251 (Kabi-Vitrum) producing pNA (p-nitroaniline) which was detected spectrophotometrically at 405 nm.

| inhibition at 20 µM (20 μM (third part of Table 1)) | IC50 [1] | inhibition at 100 µM (100 μM (third part of Table 1)) | Structure (SMILES) | also measured |
| --- | --- | --- | --- | --- |
| 10% |  |  | CC(=O)Nc1ccccc1/C=c1\[nH]c(=O)/c(=C/c2ccc(OCCCN(C)C)cc2)[nH]c1=O [Compound 5259] |  |
|  | 13 µM |  | CN(C)CCCOc1ccc(/C=c2\[nH]c(=O)/c(=C/c3cccc(F)c3)[nH]c2=O)cc1 [Compound 5373, (3Z,6Z)-6-(4-(3-Dimethylaminopropoxy)benzylidene)-3-(3-fluorobenzylidene)-2,5-piperazinedione] |  |
| 6% |  | 40% | CN(C)CCOCc1ccc(/C=c2\[nH]c(=O)/c(=C/c3ccccc3Br)[nH]c2=O)cc1 [Compound 5070.HCl, (3Z,6Z)-3-(2-Bromobenzylidene)-6-(4-(2-dimethylaminoethoxymethyl)benzylidene)-2,5-piperazinedione] | inhibition at 50 µM (50 μM (third part of Table 1)): 6% |
| 10% |  | 62% | CN(C)CCSCc1ccc(/C=c2\[nH]c(=O)/c(=C/c3ccccc3Br)[nH]c2=O)cc1 [Compound 5080.HCl, (3Z,6Z)-3-(2-Bromobenzylidene)-6-(4-(2-Dimethylaminoethylthiomethyl)benzylidene)-2,5-piperazinedione] | inhibition at 50 µM (50 μM (third part of Table 1)): 48% |
|  | 67 µM |  | CN(C)CCCOc1ccc(/C=c2\[nH]c(=O)/c(=C/c3ccccc3[N+](=O)[O-])[nH]c2=O)cc1 [Compound 5210, (3Z,6Z)-6-(4-(3-Dimethylaminopropoxy)benzylidene)-3-(2-nitrobenzylidene)-2,5-piperazinedione] |  |
| 42% |  |  | COC(=O)c1ccc(/C=c2\[nH]c(=O)/c(=C/c3ccc(OCCCN(C)C)cc3)[nH]c2=O)cc1 [Compound 5401, Methyl 4((3Z,6Z)-6-(4-(3-Dimethylaminopropoxy)benzylidene)-2,5-dioxo-3-piperazinylidene)methylbenzoate] |  |
|  | 67 µM | 71% | CN(C)CCCOc1ccc(/C=c2\[nH]c(=O)/c(=C/c3ccccc3C(F)(F)F)[nH]c2=O)cc1 [Compound 5251, (3Z,6Z)-6-(4-(3-Dimethylaminopropoxy)benzylidene)-3-(2-trifluoromethylbenzylidene)-2,5-piperazinedione] |  |
|  |  | 10% | COc1ccc(/C=c2\[nH]c(=O)/c(=C/c3ccc(OCCCN(C)C)cc3)[nH]c2=O)cc1 [Compound 5234, (3Z,6Z)-3-(4-(3-Dimethylaminopropoxy)benzylidene)-6-(4-methoxybenzylidene)-2,5-piperazinedione] |  |
|  | 2 µM |  | CSc1ccc(/C=c2\[nH]c(=O)/c(=C/c3ccc(OCCCN(C)C)cc3)[nH]c2=O)cc1 [Compound 5385, (3Z,6Z)-3-(4-(3-Dimethylaminopropoxy)benzylidene)-6-(4-methylthiobenzylidene)-2,5-piperazinedione] |  |
|  |  |  | CN(C)CCOc1ccc(/C=c2\[nH]c(=O)/c(=C/c3ccccc3)[nH]c2=O)c(Cl)c1.Cl [Compound 1960, (3Z,6Z)-6-Benzylidene-3-(2-chloro-4-(2-dimethylaminoethoxy)benzylidene)-2,5-piperazinedione, hydrochloride] | Degree of inhibition in PAI chromogenic substrate assay (6.25 μM): 56%; Degree of inhibition in PAI chromogenic substrate assay (12.5 μM): 63%; Degree of inhibition in PAI chromogenic substrate assay (25 μM): 67%; Degree of inhibition in PAI chromogenic substrate assay (50 μM): 64%; inhibition at 100 µM (100 μM): 32% |
| 80% | 15 µM | 33% | CN(C)CCCOc1ccc(/C=c2\[nH]c(=O)/c(=C/c3cccc(N4C(=O)c5ccccc5C4=O)c3)[nH]c2=O)cc1 [Compound 5255, (3Z,6Z)-6-(4-(3-Dimethylaminopropoxy)benzylidene)-3-(3-phthalimidobenzylidene)-2,5-piperazinedione] |  |
|  |  |  | CCCCOc1ccc(/C=c2\[nH]c(=O)/c(=C/c3ccc(OCCCN(C)C)cc3)[nH]c2=O)cc1 [Compound 1920, (3Z,6Z)-3-(4-Butoxybenzylidene)-6-(4-(3-dimethylaminopropoxy)benzylidene)-2,5-piperazinedione] | inhibition at 6.25 µM (6.25 μM): 33%; inhibition at 12.5 µM (12.5 μM): 50%; inhibition at 25 µM (25 μM): 57%; inhibition at 50 µM (50 μM): 66%; inhibition at 100 µM (100 μM): 68% |
|  |  |  | CN(C)CCCOc1ccc(/C=c2\[nH]c(=O)/c(=C/c3cc([N+](=O)[O-])cc([N+](=O)[O-])c3)[nH]c2=O)cc1 [Compound 5381, (3Z,6Z)-6-(4-(3-Dimethylaminopropoxy)benzylidene)-3-(3,5-dinitrobenzylidene)-2,5-piperazinedione] | IC50 (IC50, PAI chromogenic substrate assay): 15 µM |
| 10% |  | 46% | Cc1ccccc1/C=c1\[nH]c(=O)/c(=C/c2ccc(OCCCN(C)C)cc2)[nH]c1=O [Compound 5186, (3Z,6Z)-6-(4-(3-Dimethylaminopropoxy)benzylidene)-3-(2-methylbenzylidene)-2,5-piperazinedione] |  |
|  |  |  | CN(C)CCOc1ccc(/C=c2\[nH]c(=O)/c(=C/c3ccccc3)[nH]c2=O)c(OCCN(C)C)c1 [Compound 1984] | Degree of inhibition in PAI chromogenic substrate assay (12.5 μM): 0%; Degree of inhibition in PAI chromogenic substrate assay (25 μM): 0%; Degree of inhibition in PAI chromogenic substrate assay (50 μM): 0%; Degree of inhibition in PAI chromogenic substrate assay (100 μM): 17% |
| 1% |  | 21% | COc1ccccc1/C=c1\[nH]c(=O)/c(=C/c2ccc(OCCCN(C)C)cc2)[nH]c1=O [Compound 5241, (3Z,6Z)-6-(4-(3-Dimethylaminopropoxy)benzylidene)-3-(2-methoxybenzylidene)-2,5-piperazinedione] |  |
|  |  |  | CN(C)Cc1ccc(/C=c2\[nH]c(=O)/c(=C/c3ccccc3)[nH]c2=O)cc1 [Compound 1913, (3Z,6Z)-3-Benzylidene-6-(4-dimethylaminomethylbenzylidene)-2,5-piperazinedione] | inhibition at 6.25 µM (6.25 μM): 15%; inhibition at 12.5 µM (12.5 μM): 14%; inhibition at 25 µM (25 μM): 19%; inhibition at 50 µM (50 μM): 54%; inhibition at 100 µM (100 μM): 71% |
| 39% |  |  | CN(C)CCCOc1ccc(/C=c2\[nH]c(=O)/c(=C/c3ccc(C(=O)NCCc4ccccc4)cc3)[nH]c2=O)cc1 [Compound 5345, N-Phenethyl-4-((3Z,6Z)-6-(4-(3-Dimethylaminopropoxy)benzylidene)-2,5-dioxo-3-piperazinylidene)methylbenzamide] |  |
| 10% |  | 32% | CN(C)CCCOc1ccc(/C=c2\[nH]c(=O)/c(=C/c3ccccc3[N+](=O)[O-])[nH]c2=O)cc1 [Compound 5208, (3Z,6Z)-6-(4-(3-Dimethylaminopropoxy)benzylidene)-3-(2-nitrobenzylidene)-2,5-piperazinedione] |  |
| 52% |  | 75% | CN(C)CCCOc1ccc(/C=c2\[nH]c(=O)/c(=C/c3ccccc3Br)[nH]c2=O)cc1 [Compound 5060.HCl, (3Z,6Z)-3-(2-Bromobenzylidene)-6-(4-(3-dimethylaminopropoxy)benzylidene)-2,5-piperazinedione] | inhibition at 50 µM (50 μM (third part of Table 1)): 65% |
| 15% |  |  | CN(C)CCCOc1ccc(/C=c2\[nH]c(=O)/c(=C/c3ccc(C#N)cc3)[nH]c2=O)cc1 [Compound 5348] |  |
|  | 6 µM |  | Cc1ccc(/C=c2\[nH]c(=O)/c(=C/c3ccc(OCCCN(C)C)cc3)[nH]c2=O)cc1 [Compound 5235, (3Z,6Z)-3-(4-(3-Dimethylaminopropoxy)benzylidene)-6-(4-methylbenzylidene)-2,5-piperazinedione] |  |
|  |  |  | CN(C)CCOc1ccc(/C=c2\[nH]c(=O)/c(=C/c3ccccc3)[nH]c2=O)cc1OCCN(C)C [Compound 1978, (3Z,6Z)-6-Benzylidene-3-(3,4-di-(2-dimethylaminoethoxy)benzylidene)-2,5-piperazinedione] | Degree of inhibition in PAI chromogenic substrate assay (6.25 μM): 3%; Degree of inhibition in PAI chromogenic substrate assay (12.5 μM): 0%; Degree of inhibition in PAI chromogenic substrate assay (25 μM): 11%; Degree of inhibition in PAI chromogenic substrate assay (50 μM): 41%; Degree of inhibition in PAI chromogenic substrate assay (100 μM): 50% |
|  | 6.5 µM |  | CN(C)CCCOc1ccc(/C=c2\[nH]c(=O)/c(=C/c3cccc(Cl)c3)[nH]c2=O)cc1 [Compound 5240] | Degree of inhibition in PAI chromogenic substrate assay (20 μM (third part of Table 1), 20 µM): 65%; Degree of inhibition in PAI chromogenic substrate assay (100 μM (third part of Table 1), 100 µM): 46% |
| 10% |  | 55% | CN(C)CCCOc1ccc(/C=c2\[nH]c(=O)/c(=C/c3ccccc3Cl)[nH]c2=O)cc1 [Compound 5249, (3Z,6Z)-3-(2-Chlorobenzylidene)-6-(4-(3-dimethylaminopropoxy)benzylidene)-2,5-piperazinedione] |  |
| 43% | 2.5 µM | 47% | CN(C)CCCOc1ccc(/C=c2\[nH]c(=O)/c(=C/c3ccc4c(c3)OCO4)[nH]c2=O)cc1 [Compound 5201, (3Z,6Z)-6-(4-(3-Dimethylaminopropoxy)benzylidene)-3-(3,4-methylenedioxybenzylidene)-2,5-piperazinedione] |  |
|  | 11 µM |  | CN(C)CCCOc1ccc(/C=c2\[nH]c(=O)/c(=C/c3cc(Cl)cc(Cl)c3)[nH]c2=O)cc1 [Compound 5372, (3Z,6Z)-3-(3,5-Dichlorobenzylidene)-6-(4-(3-dimethylaminopropoxy)benzylidene)-2,5-piperazinedione] |  |
|  | 1.8 µM |  | CN(C)CCCOc1ccc(/C=c2\[nH]c(=O)/c(=C/c3ccc(C#N)cc3)[nH]c2=O)cc1 [Compound 5245] |  |
| 42% | 1.5 µM | 36% | CN(C)CCCOc1ccc(/C=c2\[nH]c(=O)/c(=C/c3cccc([N+](=O)[O-])c3)[nH]c2=O)cc1 [Compound 5231, (3Z,6Z)-6-(4-(3-Dimethylaminopropoxy)benzylidene)-3-(3-nitrobenzylidene)-2,5-piperazinedione] |  |
